Assay results taken from patent US12076323B2, “Treatment of hair loss disorders with deuterated JAK inhibitors” (Sun Pharmaceutical Industries, Inc., priority 2016, dated 2024).
Where two headings read alike, the source gives them in different places.

Legend:
[1] = system: IL-6-stimulated phosphorylated STAT3 (pSTAT3); test: Pharmacodynamic analysis in MAD study: IL-6-stimulated pSTAT3; assay type: in vivo, human; settings: all treatment groups
Method: (§1) Pharmacodynamic analyses were also performed during the MAD study of the Phase 1 trial to assess the inhibition of IL-6- and IFN-γ-mediated JAK/STAT signaling.

[2] = Single Ascending Dose (SAD) study, pharmacokinetics in healthy volunteers; assay type: in vivo, human; settings: fasted; for AUC(0-inf) / Cmax / half-life / AUC(0-t) / concentration at 24 h / Vd/F / Tmax: human, in vivo, oral; for AUC(0-inf) / Cmax / half-life / AUC(0-t) / concentration at 24 h / Vd/F / CL/F: arithmetic mean; for AUC(0-t): read-out: AUC0-24hr; for concentration at 24 h: read-out: C24hr; for Vd/F: read-out: Vz/F; for Tmax: median
[3] = Multiple Ascending Dose (MAD) study, pharmacokinetics in healthy volunteers; assay type: in vivo, human; settings: for Cmax / half-life / AUC(0-t) / concentration at 12 h / Tmax / concentration at 24 h: human, in vivo, oral; for Cmax / half-life / AUC(0-t) / concentration at 12 h / concentration at 24 h: arithmetic mean; for concentration at 12 h: read-out: C12hr; for Tmax: median; for concentration at 24 h: read-out: C24hr
[4] = Metabolic stability using human liver microsomes; assay type: in vitro ADME; settings: 0.25 μM test compound, 2 mM NADPH, 37° C.
Method: Deuterated test compounds were supplied by Concert Pharmaceuticals.
A 10 μL aliquot of the 12.5 μM test compound was added to the microsomes and the mixture was pre-warmed for 10 minutes.
Data analysis was performed using Microsoft Excel Software.

[5] = system: IFN-γ-mediated STAT1 signaling; test: Pharmacodynamic analysis in MAD study: IFN-γ-mediated STAT1 signaling; assay type: in vivo, human; settings: disease-relevant immune cell types, all doses evaluated
Method: as §1

[6] = Combined SAD and MAD (Phase 1) studies, safety and tolerability; assay type: in vivo, human
Method: In the combined SAD and MAD studies, a total of 77 subjects were dosed (60 received CTP-543; 17 received placebo).

[7] = single dose 8 mg as phosphate salt, n = 6
[8] = single dose 16 mg as phosphate salt, n = 6
[9] = single dose 32 mg as phosphate salt, n = 6
[10] = single dose 48 mg as phosphate salt, n = 5

[2H]C1([2H])C([C@@H](CC#N)n2cc(-c3ncnc4[nH]ccc34)cn2)C([2H])([2H])C([2H])([2H])C1([2H])[2H] [Compound (I), (R)-3-(4-(7H-pyrrolo[2,3-d]pyrimidin-4-yl)-1H-pyrazol-1-yl)-3-(cyclopentyl-2,2,3,3,4,4,5,5-d8)propanenitrile]
IL-6-stimulated phosphorylated STAT3 (pSTAT3) ([1]; MAD study): dose-related reduction
pSTAT3 inhibition at 24 hours post-dose ([1]; 24 hours post-dose): returned to approximate baseline values
AUC(0-inf) [2, 7]: 589 ng·h/mL
Cmax [2, 7]: 118 ng/mL
half-life [2, 7]: 3.14 h
AUC(0-t) [2, 7]: 584 ng·h/mL
concentration at 24 h [2, 7]: 1.02 ng/mL
Vd/F [2, 7]: 64.1 L
Tmax [2, 7]: 1.25 h
AUC(0-inf) [2, 8]: 1350 ng·h/mL
Cmax [2, 8]: 260 ng/mL
half-life [2, 8]: 3.32 h
AUC(0-t) [2, 8]: 1330 ng·h/mL
concentration at 24 h [2, 8]: 2.77 ng/mL
Vd/F [2, 8]: 61 L
AUC(0-inf) [2, 9]: 2460 ng·h/mL
Cmax [2, 9]: 535 ng/mL
half-life [2, 9]: 3.52 h
AUC(0-t) [2, 9]: 2420 ng·h/mL
concentration at 24 h [2, 9]: 5.6 ng/mL
Vd/F [2, 9]: 68.4 L
Tmax [2, 9]: 1.25 h
AUC(0-inf) [2, 10]: 4160 ng·h/mL
Cmax [2, 10]: 853 ng/mL
half-life [2, 10]: 3.61 h
AUC(0-t) [2, 10]: 4100 ng·h/mL
concentration at 24 h [2, 10]: 9.26 ng/mL
Vd/F [2, 10]: 63.2 L
CL/F [2, 7]: 14.92 L/h
CL/F [2, 8]: 13.87 L/h
CL/F [2, 9]: 13.88 L/h
CL/F [2, 10]: 12.75 L/h
average systemic exposure versus published average reported exposure of 20 mg BID ruxolitinib ([3]; 16 mg BID of Compound (I)): comparable
Cmax ([3]; 8 mg, 8 mg BID, Day 1, n = 4): 160 ng/mL
half-life ([3]; 8 mg, 8 mg BID, Day 1, n = 4): 3.77 h
AUC(0-t) ([3]; 8 mg, 8 mg BID, Day 1, n = 4, read-out: AUCtau/AUC0-12hr): 703 ng·h/mL
concentration at 12 h ([3]; 8 mg, 8 mg BID, Day 1, n = 4): 13.7 ng/mL
Tmax ([3]; 8 mg, 8 mg BID, Day 1, n = 4): 1 h
Cmax ([3]; 8 mg, 8 mg BID, Day 7, n = 4): 183 ng/mL
half-life ([3]; 8 mg, 8 mg BID, Day 7, n = 4): 4.2 h
AUC(0-t) ([3]; 8 mg, 8 mg BID, Day 7, n = 4, read-out: AUCtau/AUC0-12hr): 844 ng·h/mL
concentration at 12 h ([3]; 8 mg, 8 mg BID, Day 7, n = 4): 13.2 ng/mL
Cmax ([3]; 8 mg, 8 mg QD, Day 1, n = 7): 156 ng/mL
half-life ([3]; 8 mg, 8 mg QD, Day 1, n = 7): 3.23 h
AUC(0-t) ([3]; 8 mg, 8 mg QD, Day 1, n = 7, read-out: AUCtau/AUC0-24hr): 704 ng·h/mL
concentration at 24 h ([3]; 8 mg, 8 mg QD, Day 1, n = 7): 0.86 ng/mL
Tmax ([3]; 8 mg, 8 mg QD, Day 1, n = 7): 1 h
Cmax ([3]; 8 mg, 8 mg QD, Day 7, n = 7): 151 ng/mL
half-life ([3]; 8 mg, 8 mg QD, Day 7, n = 7): 3.51 h
AUC(0-t) ([3]; 8 mg, 8 mg QD, Day 7, n = 7, read-out: AUCtau/AUC0-24hr): 668 ng·h/mL
concentration at 24 h ([3]; 8 mg, 8 mg QD, Day 7, n = 7): 1.01 ng/mL
Tmax ([3]; 8 mg, 8 mg QD, Day 7, n = 7): 1 h
Cmax ([3]; 16 mg, 16 mg BID, Day 1, n = 8): 290 ng/mL
half-life ([3]; 16 mg, 16 mg BID, Day 1, n = 8): 2.89 h
AUC(0-t) ([3]; 16 mg, 16 mg BID, Day 1, n = 8, read-out: AUCtau/AUC0-12hr): 1060 ng·h/mL
concentration at 12 h ([3]; 16 mg, 16 mg BID, Day 1, n = 8): 15.3 ng/mL
Tmax ([3]; 16 mg, 16 mg BID, Day 1, n = 8): 1 h
Cmax ([3]; 16 mg, 16 mg BID, Day 7, n = 8): 288 ng/mL
half-life ([3]; 16 mg, 16 mg BID, Day 7, n = 8): 3.53 h
AUC(0-t) ([3]; 16 mg, 16 mg BID, Day 7, n = 8, read-out: AUCtau/AUC0-12hr): 1130 ng·h/mL
concentration at 12 h ([3]; 16 mg, 16 mg BID, Day 7, n = 8): 16.5 ng/mL
Tmax ([3]; 16 mg, 16 mg BID, Day 7, n = 8): 0.75 h
Cmax ([3]; 24 mg, 24 mg QD, Day 1, n = 8): 384 ng/mL
half-life ([3]; 24 mg, 24 mg QD, Day 1, n = 8): 3.14 h
AUC(0-t) ([3]; 24 mg, 24 mg QD, Day 1, n = 8, read-out: AUCtau/AUC0-24hr): 1670 ng·h/mL
concentration at 24 h ([3]; 24 mg, 24 mg QD, Day 1, n = 8): 2.48 ng/mL
Tmax ([3]; 24 mg, 24 mg QD, Day 1, n = 8): 0.5 h
Cmax ([3]; 24 mg, 24 mg QD, Day 7, n = 8): 310 ng/mL
half-life ([3]; 24 mg, 24 mg QD, Day 7, n = 8): 3.5 h
AUC(0-t) ([3]; 24 mg, 24 mg QD, Day 7, n = 8, read-out: AUCtau/AUC0-24hr): 1530 ng·h/mL
concentration at 24 h ([3]; 24 mg, 24 mg QD, Day 7, n = 8): 3.39 ng/mL
Tmax ([3]; 24 mg, 24 mg QD, Day 7, n = 8): 1 h
Cmax ([3]; 32 mg, 32 mg QD, Day 1, n = 8): 509 ng/mL
half-life ([3]; 32 mg, 32 mg QD, Day 1, n = 8): 2.86 h
AUC(0-t) ([3]; 32 mg, 32 mg QD, Day 1, n = 8, read-out: AUCtau/AUC0-24hr): 2220 ng·h/mL
concentration at 24 h ([3]; 32 mg, 32 mg QD, Day 1, n = 8): 2.95 ng/mL
Tmax ([3]; 32 mg, 32 mg QD, Day 1, n = 8): 0.75 h
Cmax ([3]; 32 mg, 32 mg QD, Day 7, n = 8): 492 ng/mL
AUC(0-t) ([3]; 32 mg, 32 mg QD, Day 7, n = 8, read-out: AUCtau/AUC0-24hr): 2100 ng·h/mL
concentration at 24 h ([3]; 32 mg, 32 mg QD, Day 7, n = 8): 5.12 ng/mL
Tmax ([3]; 32 mg, 32 mg QD, Day 7, n = 8): 0.75 h
accumulation with repeated dosing ([3]; repeated dosing, seven consecutive days): did not accumulate
t1/2 longer than the t1/2 of non-deuterated ruxolitinib [4]: about 75%
IFN-γ-mediated STAT1 signaling [5]: significantly inhibited
tolerability ([6]; Phase 1 study): generally well tolerated
cases of mild neutropenia ([6]; combined SAD and MAD studies): resolved or trended toward recovery after dosing completion
most common adverse event reported ([6]; combined SAD and MAD studies): headache
severe neutropenia (Grade 3 or 4) ([6]; combined SAD and MAD studies): not observed
withdrawal or dose modification related to CTP-543 ([6]; combined SAD and MAD studies): No withdrawal or dose modification
serious adverse events ([6]; combined SAD and MAD studies, 60 subjects received CTP-543): No serious adverse events were reported
absorption ([6]; combined SAD and MAD studies, oral): rapidly absorbed
